The source of these data is ChEMBL document CHEMBL1201862, “PubChem BioAssay data set” (2004).

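Dose response: 5 concentrations. Exposure: 48 h. Format: 96-well plates. Endpoint: linear interpolation; highest concentration if not reached. GI50 marks 50% less growth.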 Active and inactive are the calls of the source. No stated cut-off is given here; in the data, active = GI50 up to about 1.1 µM and inactive = higher. Bounds are passed on as bounds.

What all share (test): NCI tumour cell line growth inhibition, 48 h
For assay [1], the system named is SK-MEL-28.
Assay [2] deals with HCT-15.
Assay [3] deals with NCI-H23.
Assay [4] has as its system UACC-257.
Assay [5] deals with RXF 393.
For assay [6], the system named is NCI-H226.
Assay [7] concerns OVCAR-8.
Assay [8] has as its system SW-620.
For assay [9], the system named is SK-MEL-2.
The subject of assay [10] is OVCAR-4.
Assay [11] concerns MOLT-4.
In assay [12] the test system is SN12C.
In assay [13] the test system is UACC-62.
The subject of assay [14] is CAKI-1.
Assay [15] deals with A549.
Assay [16] relates to MCF7.
For assay [17], the system named is MDA-MB-231.
Assay [18] concerns MDA-MB-435.

For the molecule `O=C(CSc1nnc(-c2ccc(/N=C\c3ccc(Cl)cc3)cc2)o1)Nc1ccc(Cl)cc1Cl`, the GI50 in assay [1] is 28 µM (inactive); in [2] it was 23.3 µM; in assay [3], 25.3 µM (inactive); in assay [4] it was 25 µM (inactive); in [5] it was 68.7 µM (inactive); in [6], 19.7 µM (inactive). The GI50 was 28.5 µM (inactive) in assay [7]; 40.2 µM (inactive) in assay [8]; 25.2 µM (inactive) in assay [9]; 30.3 µM (inactive) in assay [10]; 24.3 µM (inactive) in assay [11]; 24 µM (inactive) in [12]. Besides, the GI50 in assay [13] was 28.7 µM (inactive); in [14] it was > 100 µM (inactive); in [15], > 100 µM (inactive).

For `C/C(=N\Nc1ccccc1)c1sc(-c2nc(C)c(/C(C)=N/Nc3ccccc3)s2)nc1C`, the GI50 is > 48.2 µM (inactive) in [1]; 11.4 µM in [2]; 32.7 µM (inactive) in assay [3]; 35.1 µM (inactive) in assay [4]; 22.8 µM (inactive) in assay [5]; 40.4 µM (inactive) in assay [6]. For the same molecule, the GI50 in [7] is 33.4 µM (inactive); in assay [8], 13.8 µM (inactive); in [9] it was > 100 µM (inactive); in [10], 21.2 µM (inactive); in [11] it was 19.2 µM (inactive); in [12], > 78.2 µM (inactive). Moreover, the results for the GI50 in assay [13], in [14] and in assay [15] were 4.07 µM (inactive), > 58.2 µM (inactive) and 13.5 µM (inactive), respectively.

Take `Nc1cc(N2CCCC2)nc(=O)n1Cc1ccccc1`: the GI50 in assay [2] is more than 100 µM; in [16] it was > 100 µM (inactive); in assay [3], > 100 µM (inactive); in [4], > 100 µM (inactive); in assay [6], > 100 µM (inactive); in [7] it was > 100 µM (inactive). The GI50 in assay [8], in assay [9], in assay [10], in assay [11], in assay [12] and in [17] was > 100 µM (inactive) each time. Besides, the GI50 in [14], in assay [18] and in assay [15] was > 100 µM (inactive) each time.

With `COc1cc(Br)c(/C=N\c2cccc3ccc(OS(=O)(=O)c4ccc([N+](=O)[O-])cc4)cc23)cc1OC`, the GI50 in assay [1] was 28.6 µM (inactive); in assay [2] it was 10.5 µM; in assay [3], 44.1 µM (inactive); in assay [4], > 100 µM (inactive); in assay [5], > 100 µM (inactive); in assay [6] it was > 100 µM (inactive). The GI50 in assay [7], in [8], in assay [9], in [10], in [11] and in [12] was > 100 µM (inactive) each time. The GI50 is 29.4 µM (inactive) in assay [13], 6.19 µM (inactive) in [14] and 33.7 µM (inactive) in assay [15].

With `COC(=O)C1=C(C[S+]([O-])c2ccc([N+](=O)[O-])cc2[N+](=O)[O-])ON(C)C1c1ccccc1` (stereo not given), the GI50 in assay [1] was 24.2 µM (inactive); in assay [2] it was 37.8 µM; in assay [3], 25.3 µM (inactive); in assay [4], 50.6 µM (inactive); in assay [5], > 42.2 µM (inactive); in [6], 65.2 µM (inactive). Further, the GI50 in assay [7] is 63.7 µM (inactive); in [8], 15.7 µM (inactive); in assay [9], 37 µM (inactive); in assay [10], 48.4 µM (inactive); in assay [11], 17.4 µM (inactive); in [12], 29.4 µM (inactive). In addition, the GI50 was 24.2 µM (inactive) in assay [13], 28 µM (inactive) in assay [14] and 99.8 µM (inactive) in [15].
